# Data taken from patent US20100068198A1, “TARGETING OF ALPHA-1 OR ALPHA-3 SUBUNIT OF NA+, K+-ATPASE IN THE TREATMENT OF PROLIFERATIVE DISEASES” (priority 2006, published 2010).
# Where two headings read alike, the source gives them in different places.
# Tests used:
# [1] = tested on: C6 rat glioma, MXT mouse mammary carcinoma and mouse B16F10 melanoma cell lines; assay: In vitro anti-tumour effect on three rodent cancer cell lines; assay type: cell-based; conditions: high doses (10 μM), FIG. 6B
# Description: We also made use of three murine cell lines, i.e., three cancer cell lines including the C6 rat glioma, the MXT mouse mammary adenocarcinomas and the mouse B16F10 melanoma models.
# Then, we made use of three rodent cancer cell lines, i.e. the C6 rat glioma, the MXT mouse […] mammary carcinoma and the mouse B16F10 melanoma models.
# [2] = tested on: α1β1, α2β1 and α3β1 Na,K-ATPases; assay: Na+,K+-ATPase activity assay on Sf-9 homogenates, statements for all isozymes together; assay type: biochemical
# Method: Na^+,K^+-ATPase activity was assayed on homogenates of Sf-9 cells expressing the α1β1, α2β1 and α3β1 isozymes. The initial rate of release of ^32Pi from γ[^32P]-ATP was measured. The ATPase activity of 30-40 μg total protein samples was measured in a final volume of 0.25 ml in a medium containing 120 mM NaCl, 30 mM KCl, 3 mM MgCl2, 0.2 mM EGTA, 30 mM Tris-HCl (pH 7.4)±particular concentrations of a tested agent, e.g., herein compound 2.
# Samples were preincubated with the inhibitor for 10 min. The assay was started by the addition of ATP with 0.2 μCi γ[32P]-ATP (2 mM final concentration). Following 30 min incubation at 37° C. the tubes were placed on ice, and the reaction was terminated by the addition of 25 μL of 55% trichloroacetic acid. Released 32Pi-Pi was converted into phosphomolybdate and extracted with isobutanol. The radioactivity in 150 μl of the organic phase was measured by liquid scintillation counting. […] The specific activity was therefore determined as the difference in ATP hydrolysis in the presence and absence of 0.0001 M compound 2.
# To determine the effect of compound 2 on the activity of the Na^+/K^+-ATPase and its various isozymes, α1β1, α2β1 and α3β1 sodium pump complexes were produced using the baculovirus expression system and dose-response curves to the compound were performed. […]
# α2β1 Na+/K+-ATPase = target: T1, α2β1 Na+/K+-ATPase (Rattus norvegicus, UniProt P06686); assay: Na+,K+-ATPase activity assay on homogenates of Sf-9 cells expressing α2β1 isozyme (32Pi release from ATP); assay type: biochemical
# T1 construct: made in house; host or cells: Sf-9 insect cells, baculovirus
# α3β1 Na+/K+-ATPase = target: T2, α3β1 Na+/K+-ATPase (Rattus norvegicus, UniProt P06687); assay: Na+,K+-ATPase activity assay on homogenates of Sf-9 cells expressing α3β1 isozyme (32Pi release from ATP); assay type: biochemical
# T2 construct: made in house; host or cells: Sf-9 insect cells, baculovirus
# α1β1 Na+/K+-ATPase [3] = target: T3, α1β1 Na+/K+-ATPase (Rattus norvegicus, UniProt P06685); assay: Na+,K+-ATPase activity assay on homogenates of Sf-9 cells expressing α1β1 isozyme (32Pi release from ATP); assay type: biochemical
# T3 construct: made in house; host or cells: Sf-9 insect cells, baculovirus
# Method: Samples were preincubated with the inhibitor for 10 min. The assay was started by the addition of ATP with 0.2 μCi γ[32P]-ATP (2 mM final concentration). […] Released 32Pi-Pi was converted into phosphomolybdate and extracted with isobutanol. The radioactivity in 150 μl of the organic phase was measured by liquid scintillation counting.
# [4] = tested on: four human NSCLC cell lines; assay type: cell-based; conditions: three days, FIG. 6A
# α1β1 Na+/K+-ATPase [5] = target: T3, α1β1 Na+/K+-ATPase; conditions: Table 4A, from Blanco et al. 2005; read-out: inhibition constant (Ki) α1β1; cited from earlier work
structure (smiles),measurement,setting,value
C[C@@H]1CC2(NC(=O)CS2)[C@]2(O)O[C@@H]3C[C@]4(CO)C5CC[C@]6(C)[C@@H](C7=CC(=O)OC7)CC[C@]6(O)[C@@H]5CC[C@H]4C[C@H]3O[C@@H]2O1 (stereo partly shown) [Compound 2],anti-tumor effects in rodent cancer cell lines,[1],displays actual anti-tumor effects
same,ATPase activity at 0.0001 M compound versus 0.001 M ouabain,[2]; 0.0001 M compound 2,comparable to that obtained with 0.001 M ouabain
same,"effect on Na,K-ATPase isozymes","[2]; all α1β1, α2β1 and α3β1",inhibitory effect
same,Ki,α2β1 Na+/K+-ATPase,15 ± 8 nM
same,Ki,α3β1 Na+/K+-ATPase,3.2 ± 3.4 nM
same,Ki,"α1β1 Na+/K+-ATPase [3]; Sf-9 expressed α1β1, Table 4A, read-out: inhibition constant (Ki) α1β1",160 ± 70 nM
same,potency of α1β1 inhibition relative to ouabain,α1β1 Na+/K+-ATPase [3]; ratio of Ki versus ouabain,approximately 100 times
same,impairment of global growth (rank among four cardenolides),[4],strongest
"C[C@H]1O[C@@H](O[C@H]2[C@@H](O)C[C@H](O[C@H]3[C@@H](O)C[C@H](O[C@H]4CC[C@@]5(C)[C@H](CC[C@@H]6[C@@H]5C[C@@H](O)[C@]5(C)[C@@H](C7=CC(=O)OC7)CC[C@]65O)C4)O[C@@H]3C)O[C@@H]2C)C[C@H](O)[C@@H]1O [Digoxin, reference compound]",Ki,α1β1 Na+/K+-ATPase [3],930 ± 410 nM
same,impairment of global growth (rank among four cardenolides),[4],weakest
C[C@@H]1O[C@@H](O[C@H]2C[C@@H](O)[C@]3(CO)[C@H]4[C@H](O)C[C@]5(C)[C@@H](C6=CC(=O)OC6)CC[C@]5(O)[C@@H]4CC[C@]3(O)C2)[C@H](O)[C@H](O)[C@H]1O [Ouabain],Ki,α1β1 Na+/K+-ATPase [5],43000 ± 19000 nM
same,impairment of global growth (rank among four cardenolides),[4],digoxin<digitoxin<ouabain<Compound 2
C[C@H]1O[C@@H](O[C@H]2[C@@H](O)C[C@H](O[C@H]3[C@@H](O)C[C@H](O[C@H]4CC[C@@]5(C)[C@H](CC[C@@H]6[C@@H]5CC[C@]5(C)[C@@H](C7=CC(=O)OC7)CC[C@]65O)C4)O[C@@H]3C)O[C@@H]2C)C[C@H](O)[C@@H]1O [digitoxin],impairment of global growth (rank among four cardenolides),[4],digoxin<digitoxin<ouabain<Compound 2
